In PubChem BioAssay (NCI):
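In this assay, cells in 96-well plates receive the compound at five concentrations for 48 hours. Endpoints are linearly interpolated between the surrounding concentrations. Definition used: TGI = concentration required for complete inhibition of growth.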

Tests used:
Assay in all cases: NCI-60 cell line screen, 48 h
NCI-H522 lung = tested on: NCI-H522 lung
UACC-62 melanoma = tested on: UACC-62 melanoma
OVCAR-4 ovarian = tested on: OVCAR-4 ovarian
UO-31 renal = tested on: UO-31 renal
MCF7 breast = tested on: MCF7 breast
T-47D breast = tested on: T-47D breast
SNB-19 CNS = tested on: SNB-19 CNS
IGROV1 ovarian = tested on: IGROV1 ovarian
K-562 leukemia = tested on: K-562 leukemia
SF-539 CNS = tested on: SF-539 CNS
MOLT-4 leukemia = tested on: MOLT-4 leukemia
OVCAR-8 ovarian = tested on: OVCAR-8 ovarian
NCI/ADR-RES ovarian = tested on: NCI/ADR-RES ovarian
RXF 393 renal = tested on: RXF 393 renal
PC-3 prostate = tested on: PC-3 prostate
786-0 renal = tested on: 786-0 renal
SK-MEL-2 melanoma = tested on: SK-MEL-2 melanoma
MDA-MB-435 = tested on: MDA-MB-435
ACHN renal = tested on: ACHN renal
TK-10 renal = tested on: TK-10 renal

Measured: TGI

CCOC(=O)c1c(N2CCOCC2)[nH]c(=O)c(C(c2c(Cl)cccc2Cl)c2c(O)c(C(=O)OCC)c(N3CCOCC3)[nH]c2=O)c1O
20 µM: UACC-62 melanoma
13.2 µM: T-47D breast
6.55 µM: K-562 leukemia
12.1 µM: MDA-MB-435
14.3 µM: TK-10 renal
15 µM: IGROV1 ovarian
6.63 µM: MCF7 breast
6.47 µM: 786-0 renal
6.37 µM: UO-31 renal
5.51 µM: MOLT-4 leukemia
29.1 µM: PC-3 prostate
13 µM: ACHN renal
16.2 µM: SK-MEL-2 melanoma
20.5 µM: OVCAR-8 ovarian
24.1 µM: OVCAR-4 ovarian
33.8 µM: NCI/ADR-RES ovarian
3.72 µM: NCI-H522 lung
4.93 µM: RXF 393 renal
21.1 µM: SNB-19 CNS
11 µM: SF-539 CNS

O=C(N/N=C\C=C\c1ccc([N+](=O)[O-])o1)C(=O)N/N=C\C=C\c1ccc([N+](=O)[O-])o1
59.1 µM: OVCAR-8 ovarian
70.1 µM: NCI/ADR-RES ovarian
> 100 µM: all other assays above

Cc1ccc(S(=O)(=O)N/N=C2/CCCOC2)cc1
> 100 µM: all assays above

COc1cc2cc3c4cc(OC)c(OC)cc4cc[n+]3c(C)c2cc1OC (tested in a mixture with another compound)
> 100 µM: all assays above
